Among the test systems are A549 NSCLC; CAKI-1 renal; HCT-116 colon; HCT-15 colon; HOP-92 NSCLC; LOX IMVI melanoma; MCF7 breast; MDA-N; NCI-H460 lung; OVCAR-4 ovarian; OVCAR-8 ovarian; SF-268 CNS; SF-295 CNS.
What all share (test): DTP human tumour cell line panel, 48 h

This is an account of results in PubChem BioAssay (NCI).

Molecules are shown by their SMILES.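 Tested at 5 concentrations; 48 h exposure; 96-well plates; endpoints linearly interpolated, else capped at highest concentration. TGI: total growth inhibition.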

For the compound `COC(=O)C(Cc1c[nH]c2ccccc12)N=C1Nc2ccncc2S(=O)(=O)N1c1cccc(OC(C)C)c1` (configuration not stated), the total growth inhibition concentration (TGI) (as a rule, the concentration at which net growth stops) in the assay on A549 NSCLC is over 100 µM; in the assay on CAKI-1 renal, over 100 µM; in the assay with HCT-116 colon it was over 100 µM; in the assay on HCT-15 colon, over 100 µM; with HOP-92 NSCLC, 43.3 µM; in the assay on LOX IMVI melanoma, over 100 µM. The TGI in the assay with MCF7 breast, with MDA-N, with NCI-H460 lung, with OVCAR-4 ovarian, in the assay on OVCAR-8 ovarian and in the assay on SF-268 CNS was over 100 µM throughout. For the same compound, in the assay with SF-295 CNS, the TGI was over 100 µM.
For `N#CCCC1(CCC#N)CCCCCCCCC(CCC#N)(CCC#N)C(O)C1O` (configuration not stated), the TGI in the assay on A549 NSCLC, in the assay on CAKI-1 renal, with HCT-116 colon, with HCT-15 colon, with HOP-92 NSCLC and in the assay with LOX IMVI melanoma was over 100 µM in each case. In addition, the TGI in the assay on MCF7 breast, in the assay with MDA-N, in the assay with NCI-H460 lung, in the assay with OVCAR-4 ovarian, with OVCAR-8 ovarian and in the assay with SF-268 CNS was over 100 µM throughout. Moreover, the TGI in the assay on SF-295 CNS was over 100 µM.
As to `CC(C)(C)OC(=O)NCCCCC(N)NC(=O)c1ccccc1` (configuration not stated), the TGI in the assay on A549 NSCLC, in the assay on CAKI-1 renal, in the assay on HCT-116 colon, in the assay on HCT-15 colon, in the assay with HOP-92 NSCLC and in the assay on LOX IMVI melanoma was over 100 µM in each case. Further, the TGI in the assay on MCF7 breast, in the assay on MDA-N, in the assay with NCI-H460 lung, in the assay with OVCAR-4 ovarian, with OVCAR-8 ovarian and with SF-268 CNS was over 100 µM each time. Also, the TGI in the assay with SF-295 CNS is over 100 µM.
Take `CC1(C)CC(=O)c2c(nc3c4c([nH]c(-c5ccc(Br)cc5)c24)CC(C)(C)C3)C1`: the total growth inhibition concentration (TGI) with A549 NSCLC, with CAKI-1 renal, with HCT-116 colon, in the assay on HCT-15 colon, with HOP-92 NSCLC and in the assay on LOX IMVI melanoma was over 100 µM in each case. Besides, the TGI in the assay with MCF7 breast, in the assay with MDA-N, with NCI-H460 lung, with OVCAR-4 ovarian, in the assay on OVCAR-8 ovarian and in the assay with SF-268 CNS was over 100 µM each time. In the assay with SF-295 CNS, the TGI is over 100 µM.
Regarding `C=CCC1(C)CCCN(Cc2ccccc2)C1=O` (configuration not stated), the TGI in the assay on A549 NSCLC, in the assay on CAKI-1 renal, with HCT-116 colon, in the assay with HCT-15 colon, with HOP-92 NSCLC and with LOX IMVI melanoma was over 10 µM throughout. For the same compound, the TGI in the assay with MCF7 breast, in the assay on MDA-N, with NCI-H460 lung, with OVCAR-4 ovarian, in the assay on OVCAR-8 ovarian and in the assay on SF-268 CNS was over 10 µM in each case. Further, the TGI in the assay on SF-295 CNS was over 10 µM.
As for `COc1cccc(C(=O)C#Cc2cnc(OC)nc2OC)c1`, the TGI in the assay with A549 NSCLC was determined as 21.4 µM; with CAKI-1 renal, 4.39 µM; in the assay with HCT-116 colon it was 7.67 µM; with HCT-15 colon, 0.516 µM; in the assay with HOP-92 NSCLC it was 4.28 µM; in the assay on LOX IMVI melanoma it was 0.25 µM. Besides, the TGI in the assay with MCF7 breast was 1.28 µM; in the assay with MDA-N, 3 µM; in the assay with NCI-H460 lung it was 28.3 µM; in the assay with OVCAR-4 ovarian it was 6.61 µM; in the assay on OVCAR-8 ovarian, 3.88 µM; in the assay on SF-268 CNS it was 6.14 µM. For the same compound, the TGI with SF-295 CNS was determined as 31.7 µM.
Turning to `C=CCOc1ccc(C2C(C(=O)OC)C(=O)CC(O)(c3ccccc3)C2C(=O)OC)cc1OC` (configuration not stated), the TGI in the assay with A549 NSCLC is over 100 µM; with CAKI-1 renal, over 100 µM; in the assay with HCT-116 colon, 49.8 µM; with HCT-15 colon, over 100 µM; in the assay with HOP-92 NSCLC, 38.5 µM; with LOX IMVI melanoma it was over 100 µM. Moreover, the TGI in the assay on MCF7 breast was 61.3 µM; in the assay on MDA-N, over 100 µM; in the assay on NCI-H460 lung it was over 100 µM; in the assay with OVCAR-4 ovarian, 69.5 µM; in the assay with OVCAR-8 ovarian it was 50.4 µM; with SF-268 CNS, 52.7 µM. In the assay on SF-295 CNS, this compound displayed a concentration for total growth inhibition (TGI) of over 100 µM.
In the case of `CC(=O)O[C@H]1CC[C@@]2(C)C(=CC[C@@H]3[C@@H]2CC[C@]2(C)c4nc(Cl)ccc4C[C@@H]32)C1`, the TGI in the assay with A549 NSCLC, in the assay on CAKI-1 renal, in the assay with HCT-116 colon, with HCT-15 colon, in the assay on HOP-92 NSCLC and in the assay on LOX IMVI melanoma was over 100 µM in each case. For the same compound, the TGI in the assay on MCF7 breast is 62.3 µM; in the assay on MDA-N, over 100 µM; in the assay with NCI-H460 lung, over 100 µM; in the assay on OVCAR-4 ovarian, over 100 µM; with OVCAR-8 ovarian it was over 100 µM; with SF-268 CNS, over 100 µM. The TGI in the assay with SF-295 CNS is 83.3 µM.
On to `CN(C)CCc1c2c(nc3ccccc13)C(=O)c1cccnc1C2=O`, for which the TGI with A549 NSCLC was 3.2 µM; in the assay on CAKI-1 renal, 4.62 µM; in the assay with HCT-116 colon, 0.344 µM; in the assay with HCT-15 colon, 0.927 µM; with HOP-92 NSCLC it was 8.76 µM; in the assay with LOX IMVI melanoma it was 0.13 µM. In addition, the TGI in the assay on MCF7 breast was 1.59 µM; with MDA-N, 1.38 µM; with NCI-H460 lung it was 0.5 µM; in the assay with OVCAR-4 ovarian, 2.79 µM; with OVCAR-8 ovarian it was 1.66 µM; in the assay with SF-268 CNS, 2.69 µM. This compound also displayed a TGI with SF-295 CNS of 1.03 µM.
